From US7704995B2 (Exelixis, Inc., priority 2003, dated 2010) come the findings set out here.

pIC50: −log10 of the molar value.

One assay has as its target T1, Chk1 (Homo sapiens, UniProt O14757).
T1 construct: purchased Upstate Biotechnology
T1 sequence (O14757 1-476): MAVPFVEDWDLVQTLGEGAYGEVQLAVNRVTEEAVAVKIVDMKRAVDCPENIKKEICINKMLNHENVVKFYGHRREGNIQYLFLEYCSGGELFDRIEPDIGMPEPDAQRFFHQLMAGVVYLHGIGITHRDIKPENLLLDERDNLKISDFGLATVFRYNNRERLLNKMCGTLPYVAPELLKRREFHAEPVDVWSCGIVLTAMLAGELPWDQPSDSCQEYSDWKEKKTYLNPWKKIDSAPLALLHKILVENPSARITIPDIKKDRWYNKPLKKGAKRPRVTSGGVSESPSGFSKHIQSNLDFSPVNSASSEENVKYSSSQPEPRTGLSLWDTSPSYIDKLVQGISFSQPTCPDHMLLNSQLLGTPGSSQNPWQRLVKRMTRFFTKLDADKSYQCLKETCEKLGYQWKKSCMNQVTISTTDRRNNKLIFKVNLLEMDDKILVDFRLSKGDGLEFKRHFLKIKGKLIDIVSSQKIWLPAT
Kind of assay: Chk1 kinase assay: incorporation of γ-33P ATP into immobilized myelin basic protein. Type of assay: biochemical. The note with it: Table 11, Chk1 only; class symbols A-D; read-out: Chk1 IC50. In a few lines: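 Plates coated with MBP, then kinase reactions in Hepes pH 7.6 buffer with 10 mM MgCl2 and 1% DMSO were started by adding unlabeled plus γ-33P ATP (10 μM for Chk1 at 10 nM enzyme; 30 μM for Chk2 at 20 nM enzyme). After 1 h at room temperature, plates were washed and counted.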
`Nc1ncc(-c2cccc(C(=O)NCc3cccc(C(F)(F)F)c3F)c2)nc1C(=O)N[C@H]1CCCNC1` [Example 874, 3-amino-6-{3-[({[2-fluoro-3-(trifluoromethyl)phenyl]methyl}amino)carbonyl]phenyl}-N-[(3S)-piperidin-3-yl]pyrazine-2-carboxamide]: the pIC50 was greater than 7.30.

`Nc1ncc(-c2cccc(OCCN3CCN(C(=O)OCc4ccccc4)CC3)c2)nc1C(=O)N[C@H]1CCCNC1` [Example 965, phenylmethyl 4-(2-{[3-(5-amino-6-{[(3S)-piperidin-3-ylamino]carbonyl}pyrazin-2-yl)phenyl]oxy}ethyl)piperazine-1-carboxylate]: the pIC50 is greater than 7.30.

`CN1CCN(c2ccc(CNC(=O)c3cccc(-c4cnc(N)c(C(=O)N[C@H]5CCCNC5)n4)c3)cc2)CC1` [Example 924, 3-amino-6-{3-[({[4-(4-methylpiperazin-1-yl)phenyl]methyl}amino)carbonyl]phenyl}-N-[(3S)-piperidin-3-yl]pyrazine-2-carboxamide]: the pIC50 is greater than 7.30.

Consider `Nc1ncc(-c2cccc(C(=O)NCc3ccccc3)c2)nc1C(=O)N[C@H]1CCCNC1` [Example 1040, 3-amino-6-{3-[({[phenyl]methyl}amino)carbonyl]phenyl}-N-[(3S)-piperidin-3-yl]pyrazine-2-carboxamide], for which the pIC50 was greater than 7.30.

As for `Nc1ncc(-c2cccc(C(=O)NCc3ccc(Cl)c(Cl)c3)c2)nc1C(=O)N[C@H]1CCNC1` [Example 826, 3-amino-6-[3-({[(3,4-dichlorophenyl)methyl]amino}carbonyl)phenyl]-N-[(3S)-pyrrolidin-3-yl]pyrazine-2-carboxamide], the pIC50 is greater than 7.30.

With `Nc1ncc(-c2cccc(C(=O)N[C@H]3CCc4ccccc43)c2)nc1C(=O)N[C@H]1CCCCNC1` [Example 973, 3-amino-N-[(3S)-azepan-3-yl]-6-(3{[(1S)-2,3-dihydro-1H-inden-1-ylamino]carbonyl}phenyl)pyrazine-2-carboxamide], the pIC50 is greater than 7.30.

With `Nc1ncc(-c2cccc(C(=O)NCCN3CCOCC3)c2)nc1C(=O)N[C@H]1CCCNC1` [Example 926, 3-amino-6-(3-{[(2-morpholin-4-ylethyl)amino]carbonyl}phenyl)-N-[(3S)-piperidin-3-yl]pyrazine-2-carboxamide], the pIC50 is 6.00 to 7.30.

Take `CCOc1cccc(-c2cnc(N)c(C(=O)N[C@H]3CCCNC3)n2)c1` [Example 962, 3-amino-6-[3-(ethyloxy)phenyl]-N-[(3S)-piperidin-3-yl]pyrazine-2-carboxamide]: the pIC50 is greater than 7.30.

For the molecule `COc1ccc(CNC(=O)c2cccc(-c3cnc(N)c(C(=O)N[C@H]4CCCNC4)n3)c2)c(OC)c1` [Example 856, 3-amino-6-{3-[({[2,4-bis(methyloxy)phenyl]methyl}amino)carbonyl]phenyl}-N-[(3S)-piperidin-3-yl]pyrazine-2-carboxamide], the pIC50 was greater than 7.30.

Consider `Nc1ncc(-c2cccc(C(=O)NCc3ccc(Cl)cc3)c2)nc1C(=O)N[C@H]1CCCNC1` [Example 861, 3-amino-6-[3-({[(4-chlorophenyl)methyl]amino}carbonyl)phenyl]-N-[(3S)-piperidin-3-yl]pyrazine-2-carboxamide], for which the pIC50 is greater than 7.30.

The same assay, now with this note: Table 11; Chk1 only; read-out: Chk1 IC50.
Take `CCN(Cc1ccccc1)Cc1cccc(-c2cnc(N)c(C(=O)NC)n2)c1` [Example 439, 3-amino-6-(3-{[ethyl(phenylmethyl)amino]methyl}phenyl)-N-methylpyrazine-2-carboxamide]: the pIC50 is 6.00 to 7.30.

On to `CC(C)(C)OC(=O)N1CCC(CNC(=O)c2nc(-c3cccc(C(=O)NCc4ccccc4)c3)cnc2N)CC1` [Example 563, 1,1-dimethylethyl 4-[({[3-amino-6-(3-{[(phenylmethyl)amino]carbonyl}phenyl)pyrazin-2-yl]carbonyl}amino)methyl]piperidine-1-carboxylate], for which the pIC50 was no more than 5.00.

`CNC(=O)c1nc(-c2cc(F)cc(C(=O)N[C@H]3CCc4ccccc43)c2)cnc1N` [Example 788, 3-amino-6-(3-{[(1S)-2,3-dihydro-1H-inden-1-ylamino]carbonyl}-5-fluorophenyl)-N-methylpyrazine-2-carboxamide]: the pIC50 is 6.00 to 7.30.

Turning to `CNC(=O)c1nc(-c2cccc(CN[C@@H](CO)c3ccccc3)c2)cnc1N` [Example 428, 3-amino-6-[3-({[(1R)-2-hydroxy-1-phenylethyl]amino}methyl)phenyl]-N-methylpyrazine-2-carboxamide], the pIC50 is 6.00 to 7.30.

For the molecule `CNC(=O)c1nc(-c2cccc(CNC3CCc4cc(-c5ccccc5)ccc43)c2)cnc1N` (stereo not drawn) [Example 491, 3-amino-N-methyl-6-(3-{[(5-phenyl-2,3-dihydro-1H-inden-1-yl)amino]methyl}phenyl)pyrazine-2-carboxamide], the pIC50 was 6.00 to 7.30.

`CCNC(=O)c1nc(-c2cccc(CNC3CCc4cc(F)cc(F)c43)c2)cnc1N` (stereo not drawn) [Example 489, 3-amino-6-(3-{[(5,7-difluoro-2,3-dihydro-1H-inden-1-yl)amino]methyl}phenyl)-N-ethylpyrazine-2-carboxamide]: the pIC50 is 6.00 to 7.30.

Staying with this assay, now noted: read-out: Chk1 IC50.
On to `CNC(=O)c1nc(-c2cccc(NC(=O)Cc3ccc(Cl)c(Cl)c3)c2)cnc1N` [Example 210, 3-amino-6-(3-{[(3,4-dichlorophenyl)acetyl]amino}phenyl)-N-methylpyrazine-2-carboxamide], for which the pIC50 is 6.00 to 7.30.

Consider `CNC(=O)c1nc(-c2cccc(C(=O)N[C@@H]3CCNC3)c2)cnc1N` [Example 358, 3-amino-N-methyl-6-(3-{[(3R)-pyrrolidin-3-ylamino]carbonyl}phenyl)pyrazine-2-carboxamide], for which the negative logarithm of the IC50 (pIC50) is 5.00 to 6.00.

Regarding `CCCN(CCOc1cccc(-c2cnc(N)c(C(=O)NC)n2)c1)CC1CC1` [Example 186, 3-amino-6-[3-({2-[(cyclopropylmethyl)(propyl)amino]ethyl}oxy)phenyl]-N-methylpyrazine-2-carboxamide], the pIC50 is 6.00 to 7.30.

Take `CNC(=O)c1nc(-c2cccc(CNCc3ccc(-c4cccs4)cc3)c2)cnc1N` [Example 422, 3-amino-N-methyl-6-{3-[({[4-(2-thienyl)phenyl]methyl}amino)methyl]phenyl}pyrazine-2-carboxamide]: the pIC50 is greater than 7.30.

As to `CNC(=O)c1nc(-c2cccc(C(=O)NCc3cccnc3)c2)cnc1N` [Example 122, 3-amino-N-methyl-6-(3-{[(pyridin-3-ylmethyl)amino]carbonyl}phenyl)pyrazine-2-carboxamide], the pIC50 was 6.00 to 7.30.

Take `CNC(=O)c1nc(-c2cccc(C(=O)NC3Cc4ccccc4C3)c2)cnc1N` [Example 104, 3-amino-6-{3-[(2,3-dihydro-1H-inden-2-ylamino)carbonyl]phenyl}-N-methylpyrazine-2-carboxamide]: the pIC50 was 6.00 to 7.30.

`CNC(=O)c1nc(-c2ccc(C(=O)NCc3ccccc3)cc2)cnc1N` [Example 150, 3-amino-N-methyl-6-(4-{[(phenylmethyl)amino]carbonyl}phenyl)pyrazine-2-carboxamide]: the pIC50 was 5.00 to 6.00.

Regarding `CNC(=O)c1nc(-c2cccc(C(=O)NCc3cccc(F)c3F)c2)cnc1N` [Example 215, 3-amino-6-[3-({[(2,3-difluorophenyl)methyl]amino}carbonyl)phenyl]-N-methylpyrazine-2-carboxamide], the pIC50 was 5.00 to 6.00.
